Laboratory results as given in patent publication US20090215743A1, “Tricyclic benzazepine derivatives and their use” (Bayer HealthCare AG, priority 2004, published 2009).

System: sterol biosynthesis
Assay: Inhibition of squalene and cholesterol synthesis in the liver of mice (sterol biosynthesis)
Format: in vivo
Details: male NMRI mice, 3 mg/kg p.o., 14C-mevalonolactone, liver lipid fraction
Procedure: Male NMRI mice are kept on normal rodent diet (NAFAG 3883) in metabolism cages. The light/dark cycle comprises 12 hours, from 06.00 to 18.00 and from 18.00 to 06.00. The animals are employed with a body weight of between 25 g and 40 g in groups of 8-10 animals in the experiments. Feed and drinking water are available to the animals ad libitum.
The substances are, according to their solubility, administered orally in aqueous tragacanth suspension (0.5%) or in Solutol HS15/saline solution (20:80) by gavage in a volume of 10 ml/kg of body weight or else injected subcutaneously in Solutol HS15/saline solution (20:80) or DMSO/saline solution (20:80). The corresponding control groups receive only the corresponding formulating agent without active substance. One or two hours after administration of the substance, the animals receive intraperitoneal injections of radiolabelled ^14C-mevalonolactone. One or two hours after the ^14C-mevalonolactone injection, or 24 hours after the administration of substance, the animals are sacrificed, the abdominal cavity is opened, and liver tissue is removed. Immediately after removal, the tissue is dried on the surface, weighed and homogenized in isopropanol. The further processing and extraction of the synthesized squalene and its secondary products takes place by a method of I. Duncan et al. (J. Chromatogr. 1979, 162), modified by H. Bischoff et al. (Atherosclerosis 1997, 135).
The extracted lipid fraction is taken up in 1 ml of isopropanol, transferred into scintillation vials, made up with 15 ml of Ultima Gold® scintillation fluid (Packard) and counted in a liquid scintillation counter (Beckmann Coulter LS 6500).
After calculation of the specific ^14C activity of the lipid fraction (dpm/g of liver tissue), the rate of synthesis of the radiolabelled ^14C squalene and of the ^14C secondary metabolites of the animals treated with the active substance is compared with the rate of synthesis of the radiolabelled ^14C squalene and of the ^14C secondary metabolites of the control animals treated only with formulating agent. A reduction in the rate of synthesis by ≧30% compared with the rate of synthesis for the control animals (=100%) is regarded as pharmacologically active if the statistical assessment by Student's t test results in a p value of <0.05.

SMILES | Inhibition relative to the untreated control group
COc1cccc(C2OC(CC(=O)N3CCN(C(C)=O)CC3)c3nnc(C(C)C)n3-c3ccc(Cl)cc32)c1OC (stereo not shown) [Example 50, 4-[2-(4-Acetylpiperazin-1-yl)-2-oxoethyl]-8-chloro-6-(2,3-dimethoxyphenyl)-1-isopropyl-4H,6H-[1,2,4]triazolo[4,3-a][4,1]benzoxazepine] | 75%
COc1cccc(C2OC(CC(=O)O)c3nnc(C(C)C)n3-c3ccc(Cl)cc32)c1OC (racemic) [Example 3, [8-Chloro-6-(2,3-dimethoxyphenyl)-1-isopropyl-4H,6H-[1,2,4]triazolo[4,3-a][4,1]benzoxazepin-4-yl]acetic acid] | 81%
COc1cccc(C2OC(CC(=O)N3CCSC3)c3nnc(C(C)C)n3-c3ccc(Cl)cc32)c1OC (stereo not shown) [Example 41, 8-Chloro-6-(2,3-dimethoxyphenyl)-1-isopropyl-4-[2-oxo-2-(1,3-thiazolidin-3-yl)ethyl]-4H,6H-[1,2,4]triazolo[4,3-a][4,1]benzoxazepine] | 81%
COc1cccc(C2OC(CC(=O)O)c3nnc(C(C)(C)CO)n3-c3ccc(Cl)cc32)c1OC (racemic) [Example 62-2, [8-Chloro-6-(2,3-dimethoxyphenyl)-1-(2-hydroxy-1,1-dimethylethyl)-4H,6H-[1,2,4]triazolo[4,3-a]-[4,1]benzoxazepin-4-yl]acetic acid] | 77%
